According to PMC10480161, “Identification of potent and selective N-myristoyltransferase inhibitors of Plasmodium vivax liver stage hypnozoites and schizonts” (Nature Communications, 2023):
“And” between values parts separate entries of the source, which are not always exact repeats. Equal values may be shown once.

What was measured:
[1] = test system: primary human hepatocytes; assay: Nuclear counts (DAPI) in P. vivax-infected primary hepatocytes as measure of toxicity; assay type: cell-based; details: two technical replicates
Experimental: Accordingly, we applied dose–response curves of all the tested NMTs on parasite isolates 2 and 3 over concentrations up to 20 µM (Fig. 5c, d, Source Data file). […] Nuclei were counted in each well using DAPI staining as a measure of toxicity (Supplementary Fig. 86, Supplementary Source data). We used the phosphatidylinositol 4-kinase inhibitor (PI4Ki), MMV390048, as a positive control for eliminating schizonts[37],[38].
Plasmodium vivax liver stage assays were performed as described previously. Cryopreserved primary human hepatocytes (Cat No. F00995-P) and hepatocyte culture medium (HCM) (InVitroGroTM CP Medium) were obtained from Bioreclamation IVT, Inc., (Baltimore, MD, USA). Briefly, we seeded 384-well plates with primary hepatocytes from a single donor lot at a density of 25,000 cells per well. We then infected the hepatocytes with 14,000 freshly hand-dissected sporozoites per well. Cells were exposed to the compounds at indicated concentrations from day 5 post-infection. We used Pi4K inhibitor MMV390048, at 20 µM, as a positive control to eliminate P. vivax liver schizonts. We then proceeded to feed cultures every day, replacing the compounds until day 8 post-infection. Cells were fixed with 4% PFA, permeabilized with 1% Triton X-100, blocked with 2% BSA, and stained with DAPI and PvUIS4 antibodies to detect schizonts and hypnozoites forms by confocal microscopy. […] DAPI was diluted 1:2000. The images were processed, analyzed and outlier cells were removed using IMARIS (Bitplane Inc.) image analysis software.
Supplementary Fig. 86. […] Nuclear […]
counts, normalized to DMSO controls, for NMT inhibitors across a dose response. Counts were ob-tained using DAPI staining from the P. vivax-infected wells quantified in Fig. 5d. Error bars represent the standard deviation of two technical replicates.
(1 picture or pasted object on this page, not shown here)

[2] = HepG2 cytotoxicity assay (Live/Dead staining); details: human, HepG2 cells
Experimental: (§1) Therefore, we assessed cytotoxicity in the human hepatoma HepG2 cell line. We required a PvNMT to HsNMT SI > 20 for further screening. HepG2 cells were exposed to the compounds at concentrations ranging from 1 to 20 µM for […], and toxicity was assessed via live-dead staining.
(§2) The viability of the HepG2 cell line following exposure to the compounds was determined by a Live/Dead cell assay kit (Invitrogen). Briefly, cells were added to a 96-well plate at a concentration of 5000 cells per well, excluding the exterior wells. Cells were exposed to the compounds at different concentrations ranging from 1 to 20 µM. Cells were washed every 24 h and supplemented with fresh doses of compounds. At 72 h post-treatment, 1 µM calcein-AM and 1 µM ethidium homodimer were added to the wells and incubated for 10 min at 37 °C. After washing with PBS, the cells were visualized with fluorescent microscopy (Keyence BZ-X700).

HepG2 cells = assay: HepG2 cytotoxicity assay (Live/Dead staining); details: for Percentage of live HepG2 cells compared with diluent controls: replicates
Experimental: as §1, §2

| SMILES | Nucleus counts per well ([1]; 1 uM) | Nucleus counts per well ([1]; 2.5uM) | Nucleus counts per well ([1]; 5 uM) | Nucleus counts per well ([1]; 10uM) | Nucleus counts per well ([1]; 20uM, P. vivax-infected wells) | IC50 at 48 h [2] [µM] | Percentage of live HepG2 cells compared with diluent controls (HepG2 cells; 1 μM) | Percentage of live HepG2 cells compared with diluent controls (HepG2 cells; 2.5 μM) | Percentage of live HepG2 cells compared with diluent controls (HepG2 cells; 5 μM) | Percentage of live HepG2 cells compared with diluent controls (HepG2 cells; 10 μM) | Percentage of live HepG2 cells compared with diluent controls (HepG2 cells; 20 μM) | IC50 (HepG2 cells) [µM] |
| --- | --- | --- | --- | --- | --- | --- | --- | --- | --- | --- | --- | --- |
| Cc1nn(C)c(C)c1CCOc1cccnc1-c1ccnc(N2CCNCC2)c1 [Compound 12a] | 15610 per well and 14860 per well | 15510 per well and 15490 per well | 15510 per well and 14150 per well | 13830 per well and 15570 per well | 12100 per well and 13960 per well | > 20 | 103.266% and 104.098% | 103.396% and 103.37% | 103.812% and 94.3274% | 93.0541% and 92.1966% | 80.685% and 80.1653% | – |
| Cc1nn(C)c(C)c1CCOc1cccnc1-c1cccc(N2CCNCC2)c1 [Compound 12b] | 16000 per well and 15090 per well | 15680 per well and 16210 per well | 15950 per well and 14130 per well | 15200 per well and 15960 per well | 12570 per well and 13810 per well | > 20 | 108.074% and 106.671% | 106.359% and 104.514% | 106.385% and 94.2234% | 92.0406% and 101.317% | 83.7772% and 84.1151% | – |
| Cc1nn(C)c(C)c1CCOc1ccccc1-c1cccc(N2CCNCC2)c1 [Compound 12d] | 15900 per well and 16970 per well | 14920 per well and 16520 per well | 15990 per well and 14720 per well | 15680 per well and 15000 per well | 12690 per well and 13950 per well | > 20 | 110.153% and 106.021% | 105.943% and 99.4465% | 100.018% and 98.1213% | 93.0281% and 104.514% | 84.6088% and 84.0111% | – |
| Cc1nn(C)c(C)c1CCOc1cc(F)ccc1-c1cccc(N2CCNCC2)c1 [Compound 12f] | 15280 per well and 15770 per well | 15290 per well and 15210 per well | 15170 per well and 14310 per well | 14300 per well and 15260 per well | 13150 per well and 16410 per well | > 20 | 101.889% and 101.421% | 101.941% and 101.11% | 95.3928% and 101.733% | 95.3148% and 109.373% | 87.3113% and 87.6751% | – |
| c1cncc(CCOc2cccnc2-c2cccc(N3CCNCC3)c2)c1 [Compound 12g] | 14940 per well and 14730 per well | 14740 per well and 14990 per well | 14960 per well and 13600 per well | 13740 per well and 14770 per well | 11770 per well and 13000 per well | > 20 | 99.9402% and 99.6024% | 99.7323% and 98.2512% | 98.4851% and 90.6374% | 86.6876% and 91.5989% | 78.4502% and 78.1644% | – |
| c1cncc(CCOc2ccccc2-c2ccnc(N3CCNCC3)c2)c1 [Compound 12j] | 16280 per well and 14580 per well | 10950 per well and 12190 per well | 11170 per well and 12350 per well | 12430 per well and 11110 per well | 10860 per well and 12840 per well | > 20 | 85.5703% and 82.8678% | 74.0847% and 82.3481% | 81.2567% and 75.202% | 74.4485% and 73.0193% | 72.4216% and 71.8759% | – |
| Fc1ccc(-c2ccnc(N3CCNCC3)c2)c(OCCc2cccnc2)c1 [Compound 12l] | 15910 per well and 14650 per well | 13010 per well and 13310 per well | 13030 per well and 13070 per well | 13130 per well and 13070 per well | 11440 per well and 13460 per well | > 20 | 89.7539% and 87.5192% | 87.1294% and 87.1034% | 86.8955% and 86.7396% | 88.7665% and 86.09% | 76.2415% and 75.9816% | – |
| Cc1n[nH]c(C)c1CCOc1cc(F)ccc1-c1ccnc(N2CCNCC2)c1 [Compound 12q] | 14830 per well and 14410 per well | 12630 per well and 14350 per well | 13780 per well and 14410 per well | 15080 per well and 12510 per well | 12010 per well and 14890 per well | – | 99.2906% and 100.564% | 95.6786% and 92.2225% | 91.8587% and 84.219% | 83.4135% and 96.0684% | 80.0613% and 94.8991% | > 20 |
| Cc1nn(C)c(C)c1CCOc1ccccc1-c1cccc(OCCN(C)C)c1 [Compound 26b] | 14910 per well and 16840 per well | 13670 per well and 14610 per well | 13920 per well and 13020 per well | 12600 per well and 13580 per well | 11600 per well and 12490 per well | > 20 | 97.4196% and 92.7163% | 92.7942% and 91.1312% | 90.5335% and 86.8176% | 83.2575% and 84.0111% | 77.3069% and 77.3588% | – |
| Cc1nn(C)c(C)c1CCOc1cc(F)ccc1-c1cccc(OCCN(C)C)c1 [Compound 26c] | 16190 per well and 15050 per well | 15160 per well and 15950 per well | 16180 per well and 14300 per well | 14610 per well and 15250 per well | 12520 per well and 13160 per well | > 20 | 106.359% and 107.918% | 107.866% and 101.058% | 101.681% and 95.3408% | 87.7011% and 97.3677% | 83.4394% and 83.5174% | – |
| Cc1nn(C)c(C)c1CCOc1ccc2ccccc2c1-c1ccnc(N2CCNCC2)c1 [Compound 30a] | 15050 per well and 16480 per well | 16520 per well and 15260 per well | 14210 per well and 14260 per well | 14230 per well and 14010 per well | 13060 per well and 13510 per well | – | 103.422% and 100.304% | 101.733% and 94.8731% | 94.7431% and 110.101% | 109.841% and 95.0809% | 87.0514% and 94.4833% | > 20 |
